Assay results taken from PubChem BioAssay AID1963838 (Molecular Pharmacology Branch, DTP, NCI, 2024).
pIC50: −log10 of the molar value.

Tested on: 855422-203-R-J1-PDC complex spheroid viability
Experiment: Anticancer human tumor 855422-203-R-J1-PDC patient-derived bladder carcinoma cell line growth inhibition [POLQ]
Settings: for pIC50: curve of first compound; for viability, T/C: stronger effect = lower value
Experimental: Multicellular complex tumor spheroid response to Polymerase (POL) inhibitors (novobiocin, ART-558, RP6685) in combination with a variety of drugs and investigational agents in selected tumor cell lines
The POL inhibitors (novobiocin, ART-558, and RP6685) were evaluated both individually and in combination with standard of care and investigational anticancer small molecules within a complex spheroid model of solid tumors. . Complex spheroids include a stromal component modeled by human endothelial cells (HUVEC) and fibroblasts modeled by human mesenchymal stem cells (MSCs). The concentration ranges selected for each drug and investigational agent were based upon clinically achievable concentrations if the clinical Cmax of the agent was known.
Compounds. The drugs and investigational agents: novobiocin (NSC847541), ART-558 (NSC835418), RP-6685 (NSC848927), peposertib (NSC802822), ceralasertib (NSC780249), elimusertib (NSC800525), camonsertib (NSC841442), AZD-1390 (NSC803789), olaparib (NSC753686), talazoparib (NSC767125), rucaparib (NSC756644), sotorasib (NSC818433), MRTX-1133 (NSC836407), SN-38 (NSC673596), topotecan (NSC609699), epotoside (NSC141540), doxorubicin (NSC123127), gemcitabine (NSC613327), 5-fluorouracil (NSC19893), paclitaxel (NSC125973), vemurafenib (NSC761431), MSA-2 (NSC828583), SN-011 (NSC837082), adavosertib (NSC754352), prexasertib (NSC758257), carboplatin (NSC241240) and oxaliplatin (NSC266046), were obtained from the National Cancer Institute (NCI) Developmental Therapeutics Program Chemical Repository (21). The FDA-approved anticancer drug set is available from the Developmental Therapeutics Program at https://dtp.cancer.gov/organization/dscb/obtaining/. […] The stock solutions were prepared in dimethyl sulfoxide (DMSO, Sigma-Aldrich, St. Louis, MO, cat. D2650), except for the platinum compounds which were prepared in saline (Quality Biological, Gaithersburg, MD, cat. 114-055-101), at 800-fold the tested concentration and stored at -70 degrees C prior to their use. All drugs and investigational agents were tested over a range starting from a high concentration at or near the clinical Cmax and decreasing in half-log increments. If the clinical Cmax for an agent had not been determined, the highest concentration tested was 10 microM, except for SN-38, which was tested at a high concentration of 1 microM.
Cell Culture. All cells were maintained in an incubator at 37 degrees C and 5% CO2 with 95% humidity. The PDC lines were cultured according to standard operating procedures established by the NCI PDMR (https://pdmr.cancer.gov). Table 3 of the manuscript, lists the cell lines along with the number of the three cell types plated to form the mct-spheroids and media for tumor cell growth. After thawing, all PDC lines, except 997537-175-T-J1-PDC and 415267-285-R-J2-PDC, were cultured in Matrigel-coated flasks prepared with a working solution of 1X Ham's F-12 nutrient mix, without supplementation (Thermo Fisher Scientific, cat. 11765054), 100 U/mL penicillin-streptomycin (Thermo Fisher Scientific, cat. 15140122), and 2.5% Matrigel (Corning Inc., Corning, NY, cat. 354248) for the first three passages. The two PDC lines 997537-175-T-J1-PDC and 415267-285-R-J2-PDC were cultured on uncoated flasks. The 857933-349-R-J2-PDC line was cultured in 6C/Colon 1B media containing advanced DMEM/F-12 (Thermo Fisher Scientific, cat. 12634028), 10 mM HEPES (Thermo Fisher Scientific, cat. 15630080), 1X GlutaMAX supplement (Thermo Fisher Scientific, cat. 35050061), 0.1 mg/mL primocin (InvivoGen, San Diego, CA, cat. ant-pm-2), 10% defined fetal bovine serum, heat inactivated (HyClone Laboratories Inc., Logan, UT, cat. SH30070.03HI), 50% L-WRN conditioned media (ATCC, cat. CRL-3276), 1.25 mM N-Acetyl-L-cysteine (Sigma-Aldrich, cat. A9165), 10 mM nicotinamide (Sigma-Aldrich, cat. N0636), 1X B-27 supplement (Thermo Fisher Scientific, cat. 17504044), 1X N-2 supplement (Thermo Fisher Scientific, cat. […]

[1] = second compound 0.0316 µM, first compound 0.00316 µM
[2] = second compound 0.0316 µM, first compound 0.01 µM
[3] = second compound 0.0316 µM, first compound 0.0316 µM
[4] = second compound 0.0316 µM, first compound 0.1 µM
[5] = second compound 0.0316 µM, first compound 0.316 µM
[6] = second compound 0.0316 µM, first compound 1 µM
[7] = second compound 0.1 µM, first compound 0.00316 µM
[8] = second compound 0.1 µM, first compound 0.01 µM
[9] = second compound 0.1 µM, first compound 0.0316 µM
[10] = second compound 0.1 µM, first compound 0.1 µM
[11] = second compound 0.1 µM, first compound 0.316 µM
[12] = second compound 0.1 µM, first compound 1 µM
[13] = second compound 0.316 µM, first compound 0.00316 µM
[14] = second compound 0.316 µM, first compound 0.01 µM
[15] = second compound 0.316 µM, first compound 0.0316 µM
[16] = second compound 0.316 µM, first compound 0.1 µM
[17] = second compound 0.316 µM, first compound 0.316 µM
[18] = second compound 0.316 µM, first compound 1 µM
[19] = second compound 1 µM, first compound 0.00316 µM
[20] = second compound 1 µM, first compound 0.01 µM
[21] = second compound 1 µM, first compound 0.0316 µM
[22] = second compound 1 µM, first compound 0.1 µM
[23] = second compound 1 µM, first compound 0.316 µM
[24] = second compound 1 µM, first compound 1 µM
[25] = second compound 3.16 µM, first compound 0.00316 µM
[26] = second compound 3.16 µM, first compound 0.01 µM
[27] = second compound 3.16 µM, first compound 0.0316 µM
[28] = second compound 3.16 µM, first compound 0.1 µM
[29] = second compound 3.16 µM, first compound 0.316 µM
[30] = second compound 3.16 µM, first compound 1 µM
[31] = second compound 10 µM, first compound 0.00316 µM
[32] = second compound 10 µM, first compound 0.01 µM
[33] = second compound 10 µM, first compound 0.0316 µM
[34] = second compound 10 µM, first compound 0.1 µM
[35] = second compound 10 µM, first compound 0.316 µM
[36] = second compound 10 µM, first compound 1 µM
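Also: spheroids exposed to compounds for seven days before readout.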

**Q.** Which results are given for `C=CCn1c(=O)c2cnc(Nc3ccc(N4CCN(C)CC4)cc3)nc2n1-c1cccc(C(C)(C)O)n1` + COC1C(OC(N)=O)C(O)C(Oc2ccc3c(O)c(NC(=O)c4ccc(O)c(CC=C(C)C)c4)c(=O)oc3c2C)OC1(C)C?
**A.** pIC50 (second compound 0.0316 µM): < 6.00; pIC50 (second compound 0.1 µM): < 6.00; pIC50 (second compound 0.316 µM): < 6.00; pIC50 (second compound 1 µM): < 6.00; pIC50 (second compound 3.16 µM): < 6.00; pIC50 (second compound 10 µM): < 6.00; viability, T/C [1]: 90.6%; viability, T/C [2]: 93.2%; viability, T/C [3]: 96.4%; viability, T/C [4]: 94.5%; viability, T/C [5]: 92.1%; viability, T/C [6]: 101%; viability, T/C [7]: 95.9%; viability, T/C [8]: 94.3%; viability, T/C [9]: 91.9%; viability, T/C [10]: 107%; viability, T/C [11]: 105%; viability, T/C [12]: 99.7%; viability, T/C [13]: 98.7%; viability, T/C [14]: 103%; viability, T/C [15]: 95.9%; viability, T/C [16]: 106%; viability, T/C [17]: 109%; viability, T/C [18]: 103%; viability, T/C [19]: 91.5%; viability, T/C [20]: 110%; viability, T/C [21]: 102%; viability, T/C [22]: 98.9%; viability, T/C [23]: 103%; viability, T/C [24]: 93.1%; viability, T/C [25]: 107%; viability, T/C [26]: 95.4%; viability, T/C [27]: 94.1%; viability, T/C [28]: 102%; viability, T/C [29]: 113%; viability, T/C [30]: 91.9%; viability, T/C [31]: 105%; viability, T/C [32]: 104%; viability, T/C [33]: 101%; viability, T/C [34]: 96%; viability, T/C [35]: 94.2%; viability, T/C [36]: 90%

**Q.** How did the pIC50 (second compound 0.0316 µM) turn out when `COc1cccc(OCCCN)c1-c1cc(Nc2cnc(C#N)cn2)n[nH]1` + COC1C(OC(N)=O)C(O)C(Oc2ccc3c(O)c(NC(=O)c4ccc(O)c(CC=C(C)C)c4)c(=O)oc3c2C)OC1(C)C was run?
**A.** The pIC50 was 7.71.

**Q.** What about the pIC50 (second compound 0.1 µM) of the same molecule?
**A.** The pIC50 was 7.80.

**Q.** What about the pIC50 (second compound 0.316 µM) of the same molecule?
**A.** The pIC50 was 7.70.

**Q.** And the pIC50 (second compound 1 µM)?
**A.** The pIC50 was 7.80.

**Q.** What about the pIC50 (second compound 3.16 µM) of the same molecule?
**A.** Its pIC50 is 7.79.

**Q.** What about the pIC50 (second compound 10 µM) of the same molecule?
**A.** The pIC50 was 7.80.

**Q.** What about the viability, T/C [1] of the same molecule?
**A.** The viability, T/C was 98.3%.

**Q.** And the viability, T/C [2]?
**A.** Its viability, T/C is 90%.

**Q.** And the viability, T/C [3]?
**A.** Its viability, T/C is 20.3%.

**Q.** And the viability, T/C [4]?
**A.** The viability, T/C was 8.97%.

**Q.** What about the viability, T/C [5] of the same molecule?
**A.** The viability, T/C was 6.7%.

**Q.** What about the viability, T/C [6] of the same molecule?
**A.** The viability, T/C was 6.14%.

**Q.** What about the viability, T/C [7] of the same molecule?
**A.** Its viability, T/C is 102%.

**Q.** What about the viability, T/C [8] of the same molecule?
**A.** Its viability, T/C is 69%.

**Q.** What about the viability, T/C [9] of the same molecule?
**A.** The viability, T/C was 22.4%.

**Q.** And the viability, T/C [10]?
**A.** Its viability, T/C is 8.69%.

**Q.** And the viability, T/C [11]?
**A.** The viability, T/C was 5.66%.

**Q.** And the viability, T/C [12]?
**A.** Its viability, T/C is 4.71%.

**Q.** What about the viability, T/C [13] of the same molecule?
**A.** Its viability, T/C is 109%.

**Q.** What about the viability, T/C [14] of the same molecule?
**A.** The viability, T/C was 101%.

**Q.** And the viability, T/C [15]?
**A.** The viability, T/C was 16.4%.

**Q.** What about the viability, T/C [16] of the same molecule?
**A.** Its viability, T/C is 7.64%.

**Q.** What about the viability, T/C [17] of the same molecule?
**A.** The viability, T/C was 6.06%.

**Q.** What about the viability, T/C [18] of the same molecule?
**A.** The viability, T/C was 5.18%.

**Q.** And the viability, T/C [19]?
**A.** The viability, T/C was 118%.

**Q.** And the viability, T/C [20]?
**A.** Its viability, T/C is 75.1%.

**Q.** And the viability, T/C [21]?
**A.** The viability, T/C was 13.6%.

**Q.** And the viability, T/C [22]?
**A.** The viability, T/C was 6.95%.

**Q.** What about the viability, T/C [23] of the same molecule?
**A.** Its viability, T/C is 5.24%.

**Q.** What about the viability, T/C [24] of the same molecule?
**A.** The viability, T/C was 5.12%.

**Q.** What about the viability, T/C [25] of the same molecule?
**A.** The viability, T/C was 109%.

**Q.** And the viability, T/C [26]?
**A.** Its viability, T/C is 74.9%.

**Q.** What about the viability, T/C [27] of the same molecule?
**A.** Its viability, T/C is 14.5%.

**Q.** What about the viability, T/C [28] of the same molecule?
**A.** Its viability, T/C is 7.77%.

**Q.** And the viability, T/C [29]?
**A.** The viability, T/C was 5.93%.

**Q.** And the viability, T/C [30]?
**A.** The viability, T/C was 8.32%.

**Q.** What about the viability, T/C [31] of the same molecule?
**A.** Its viability, T/C is 107%.

**Q.** And the viability, T/C [32]?
**A.** Its viability, T/C is 74.2%.

**Q.** And the viability, T/C [33]?
**A.** The viability, T/C was 15%.

**Q.** And the viability, T/C [34]?
**A.** The viability, T/C was 8.46%.

**Q.** And the viability, T/C [35]?
**A.** Its viability, T/C is 7.19%.

**Q.** What about the viability, T/C [36] of the same molecule?
**A.** The viability, T/C was 4.54%.
